Values quoted from earlier work in patent US12564579B2, “Topical formulations of (1S)-1-phenyl-2-pyridin-2-ylethanamine” (priority 2020, dated 2026).

Conditions: clinical trials

## N[C@@H](Cc1ccccn1)c1ccccc1 [Lanicemine, (1S)-1-phenyl-2-pyridin-2-ylethanamine]
  psychotomimetic side effects: little or no psychotomimetic side effects
Development terminated by sponsor
  study endpoints: did not meet study endpoints
